Measurements taken from patent US20230255921A1, “COMPOSITION FOR TREATING KCA3.1 CHANNEL-MEDIATED DISEASES COMPRISING PHENYLALKYL CARBAMATE COMPOUND” (CEL[…], priority 2020, published 2023).
Where a name gives a salt, the structure may show the parent alone.

Key:
[1] = test system: lung fibrosis induced by bleomycin; test: Bleomycin-induced lung fibrosis mouse model; type: in vivo, C57BL/6 wild-type mice; settings: BLM+SF-2 vs BLM group
Procedure: To confirm the effect of the SF-2 compound according to the present invention on the inhibition of fibrosis, an experiment was performed as follows. First. C57BL/6 wild-type mice (purchased from Orient Bio) were divided into three groups of 6 to 8, and used as a disease-induced group, a drug-administered group, and a normal control. The test mice for each group were treated as follows.
(1) Disease-induced group: Lung fibrosis was induced by injecting 1.5 units of bleomycin into the airways of test mice. In addition, the same amount of distilled water as the SF-2 compound administered to the following drug-administered group was intraperitoneally injected (100 mg/kg) 5 times a week. In the accompanying drawing, bleomycin (BLM) refers to this disease-induced group.
(2) Drug-administered group: 1.5 units of bleomycin was injected into the airways of test mice, and then the SF-2 compound of the present invention was intraperitoneally injected (100 mg/kg) five times a week. In the accompanying drawing, BLM+SF-2 indicates the drug-administered group.
(3) Normal control: The same amount of distilled water as that of bleomycin injected into the disease-induced group was injected into the airways. In addition, the same amount of distilled water as that of the SF-2 compound administered to the drug-administered group was intraperitoneally injected five times a week. In the accompanying drawing, C or Control indicates the normal group.
The mouse models for each group were treated with drugs for 4 weeks in the same way as described above and immediately killed by administering an excess of an anesthetic, and then the lungs were extracted and used in the subsequent test.
(§1) The lung and liver tissues extracted from the mouse model were fixed with a paraformaldehyde solution, and cut to a thickness of 1 to 2 mm. The cut tissue was embedded in paraffin and cut to a thickness of 4 μm, the paraffin was removed with xylene, the xylene was removed with ethanol, and the resultant was washed with tap water, thereby obtaining a paraffinized tissue specimen.
(§2) Tissue immunohistochemistry for collagen, which is a fibrotic marker, in the lung and liver tissues, was performed by Masson's trichrome staining.
(§3) The degrees of mRNA expression of pro-inflammatory or pro-fibrotic agents in lung and liver tissues extracted from the mouse models were measured by real time PCR. RNAs of these tissues were isolated using a TRIzol reagent (Molecular Research Center. Cincinnati, Ohio), and single-stranded cDNA was synthesized using BcaBEST polymerase (Takara Shuzo), followed by performing PCR.

[2] = test system: liver fibrosis induced by a CDAHFD diet; test: CDAHFD diet-induced liver fibrosis mouse model; type: in vivo, C57BL/6 wild-type mice; settings: CDAHFD+SF-2 vs CDAHFD group, 100 mg/kg/day five times a week, 16 weeks
Procedure: To confirm the therapeutic effect of the SF-2 compound of the present invention on liver inflammation and fibrosis, an experiment was performed as follows. First, C57BL/6 wild-type mice (purchased from Orient Bio) were divided into three groups of 6 to 8, and used as a disease-induced group, a drug-administered group, and a normal control. The test mice for each group were treated as follows.
(1) Drug-induced group: Test mice were fed a CDAHFD diet (choline deficient, L-amino-acid-defined, high-fat diet with 0.1% methionine. A06071302, Research Diets, New Brunswick, N.J.) to induce fatty liver disease and fibrosis. In addition, the same amount of distilled water as that of the SF-2 compound administered to the following drug-administered group five times a week using a zonde (oral tube). In the accompanying drawing, CDAHFD indicates the disease-induced group.
(2) Drug-administered group: The SF-2 compound of the present invention, together with the CDAHFD diet, was administered (100 mg/kg/day) to test mice five times a week. In the accompanying drawing, CDAHFD+SF-2 indicates the drug-administered group.
(3) Normal control: Test mice were fed a normal diet. In addition, the same amount of distilled water as that of the SF-2 compound was administered to the drug-administered group five times a week using a zonde (oral tube). In the accompanying drawing, C or Control indicates the normal group.
The mouse models for each group were treated with drugs for 16 weeks in the same way as described above and immediately killed by administering an excess of an anesthetic, and then the livers were extracted and used in the subsequent test.
as §1, §2, §3

[3] = molecular target: KCa3.1 channel (Mus musculus, UniProt O89109); test: Whole-cell patch-clamp KCa3.1 current in cultured fibroblasts; type: cell-based; parameters: host or cells: fibroblasts (ATCC CRL-2795); settings: FIG. 1 and FIG. 2
Chain of KCa3.1 channel (O89109 whole entry): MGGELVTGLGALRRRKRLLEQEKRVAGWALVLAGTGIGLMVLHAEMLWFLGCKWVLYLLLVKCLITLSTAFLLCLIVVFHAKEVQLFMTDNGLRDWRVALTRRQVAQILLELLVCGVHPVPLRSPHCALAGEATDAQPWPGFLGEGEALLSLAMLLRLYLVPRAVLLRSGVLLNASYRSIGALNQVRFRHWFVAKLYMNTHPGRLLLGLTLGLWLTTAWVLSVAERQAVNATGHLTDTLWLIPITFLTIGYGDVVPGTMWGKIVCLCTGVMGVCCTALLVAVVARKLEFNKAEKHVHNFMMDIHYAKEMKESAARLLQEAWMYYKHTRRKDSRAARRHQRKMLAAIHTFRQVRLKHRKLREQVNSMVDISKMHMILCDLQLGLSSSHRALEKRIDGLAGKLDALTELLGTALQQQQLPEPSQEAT
Procedure: Fibroblasts (CRL-2795: American Type Culture Collection, VA) were cultured in Dulbecco's Modified Eagle Medium (Hyclone, Logan, Utah). All cells were maintained in 5% CO2 under a humid condition at 37° C. The cultured fibroblasts were exposed to pro-inflammatory agents such as lipopolysaccharides (LPS) and a pro-fibrotic agent TGFβ, and the compounds of Chemical Formulas 2 to 8 of the present invention (hereinafter, referred to as SF-2 to SF-8 compounds) for 24 hours, and then anti-inflammatory and anti-fibrotic effects were tested.
Whole cell current through the cell membrane in isolated and cultured single fibroblasts was measured using a patch-clamp technique. A voltage ramp was used to apply voltage to whole-cell voltage clamp cells from −100 mV to +100 mV using a micro-glass electrode, the generated current was amplified using an amplifier (EPC-10, HEKA, Lambrecht, Germany) and then recorded at a sampling rate of 1 to 4 kHz. […]
KCa3.1 current was isolated using the following method. Ina current recorded by injecting 1 μM Ca^2+ into whole-cell voltage clamp cells using a glass electrode and applying 1-ethyl-2-benzimidazolinone (1-EBIO, 100 μM) activating KCa3.1 current, a current inhibited by KCa3.1 channel inhibitor TRAM-34 (10 μM) was determined as the KCa3.1 current, and the recorded current was normalized by division by cell capacitance.

[4] = lung tissue, 100 mg/kg intraperitoneal five times a week, 4 weeks, FIG. 6

NC(=O)OC[C@H](N)Cc1ccccc1 [SF-2, (R)-2-amino-3-phenyl propylcarbamate hydrochloride]
fibrosis degree, Masson's trichrome staining of lung tissue ([1]; intraperitoneal five times a week for 4 weeks, FIG. 5): decreased
mRNA expression level of Col1α [1, 4]: greatly decreased
mRNA expression level of Col3α [1, 4]: greatly decreased
mRNA expression level of α-SMA [1, 4]: greatly decreased
degree of blue staining of the liver tissue (Masson's trichrome, collagen fiber) ([2]; FIG. 7): greatly decreased
mRNA expression level of Col1α ([2]; FIG. 8): greatly decreased
mRNA expression level of Col3α ([2]; FIG. 8): greatly decreased
mRNA expression level of α-SMA ([2]; FIG. 8): greatly decreased
KCa3.1 current activated by Ca2+ and 1-EBIO in cells [3]: inhibited by SF-2 in a concentration-dependent manner
